From paper PMC5743427, “Inhibition of PIP4Kγ ameliorates the pathological effects of mutant huntingtin protein” (eLife, 2017)

Columns and labels:
PIP4K2C = molecular target: T1, PIP4K2C (Homo sapiens, UniProt Q8TBX8); assay: KINOMEscan competition binding, single dose […]; details: 10 µM
T1 sequence (Q8TBX8 2-421): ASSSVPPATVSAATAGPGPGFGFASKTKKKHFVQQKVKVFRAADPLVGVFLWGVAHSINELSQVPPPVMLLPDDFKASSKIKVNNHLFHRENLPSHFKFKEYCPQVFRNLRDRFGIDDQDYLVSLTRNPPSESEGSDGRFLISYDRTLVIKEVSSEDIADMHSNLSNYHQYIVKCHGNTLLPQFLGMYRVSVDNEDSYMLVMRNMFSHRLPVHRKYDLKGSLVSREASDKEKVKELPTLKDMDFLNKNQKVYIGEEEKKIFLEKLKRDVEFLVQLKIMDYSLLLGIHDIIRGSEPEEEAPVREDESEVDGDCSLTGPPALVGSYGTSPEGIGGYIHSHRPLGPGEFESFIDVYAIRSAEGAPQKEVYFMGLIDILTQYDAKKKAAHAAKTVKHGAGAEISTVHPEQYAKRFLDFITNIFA

PIP4Kalpha = molecular target: T2, PIP4Kalpha (Homo sapiens, UniProt P48426); assay: […] lipid kinase assay (PI5P phosphorylation) with purified recombinant enzyme; weak inhibition; type: biochemical
T2 construct: gene PIP4K2A
T2 sequence (P48426 2-406): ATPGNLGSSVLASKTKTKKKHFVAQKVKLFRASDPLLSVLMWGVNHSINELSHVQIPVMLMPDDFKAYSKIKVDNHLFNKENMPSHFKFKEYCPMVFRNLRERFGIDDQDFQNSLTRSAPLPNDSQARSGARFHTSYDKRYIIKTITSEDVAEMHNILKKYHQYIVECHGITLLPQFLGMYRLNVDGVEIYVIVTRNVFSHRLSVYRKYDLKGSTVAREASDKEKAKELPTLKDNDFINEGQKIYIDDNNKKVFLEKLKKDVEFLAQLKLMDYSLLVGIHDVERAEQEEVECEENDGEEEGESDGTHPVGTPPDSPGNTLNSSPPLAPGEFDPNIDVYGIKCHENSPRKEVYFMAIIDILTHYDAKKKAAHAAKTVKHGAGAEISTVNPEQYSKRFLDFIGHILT

PIP4Kγ = molecular target: T3, PIP4Kγ (Homo sapiens, UniProt Q8TBX8); assay: DiscoverX KINOMEscan competition binding Kd; also […] lipid kinase assay with purified full-length enzyme (IC50 […])
T3 construct: gene PIP4K2C; KINOMEscan construct for Kd; full length isolated PIP4Kγ for the enzyme assay
T3 sequence (Q8TBX8 2-421): T1 sequence (Q8TBX8 2-421)

ML168 (PIP4K2C)	IC50 (PIP4Kalpha)	Kd (PIP4Kγ)	Structure (SMILES)
23			Cn1nnnc1Sc1ncnc2scc(-c3ccccc3)c12 [ML168]
	50 to 100 µM	0.354 µM	Cn1nnnc1Sc1ncnc2scc(-c3cccc(S(C)(=O)=O)c3)c12 [NCT-504, 4-((1-methyl-1H-tetrazol-5-yl)thio)−5-(3-(methylsulfonyl)phenyl)thieno[2,3-d]pyrimidine]
